Laboratory results reported in ChEMBL document CHEMBL1201862, “PubChem BioAssay data set” (2004).
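The compound was tested at five concentrations on cells cultured in 96-well plates, with a 48-hour exposure period. At the GI50, growth is halved.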 Activity calls are given as the source filed them. No stated cut-off is given here; in the data, active = GI50 up to about 1.1 µM and inactive = higher.

Tests used:
Test in all cases: NCI tumour cell line growth inhibition, 48 h
UO-31 = tested on: UO-31
TK-10 = tested on: TK-10
OVCAR-3 = tested on: OVCAR-3
ACHN = tested on: ACHN
PC-3 = tested on: PC-3
MCF7 = tested on: MCF7
OVCAR-8 = tested on: OVCAR-8
Hs-578T = tested on: Hs-578T
SW-620 = tested on: SW-620
CAKI-1 = tested on: CAKI-1
HL-60 = tested on: HL-60
NCI-H460 = tested on: NCI-H460
COLO 205 = tested on: COLO 205
SF-539 = tested on: SF-539
LOX IMVI = tested on: LOX IMVI
NCI-H23 = tested on: NCI-H23
MOLT-4 = tested on: MOLT-4
MDA-MB-231 = tested on: MDA-MB-231
M14 = tested on: M14
SNB-75 = tested on: SNB-75

SMILES	GI50 (UO-31)	GI50 (TK-10)	GI50 (OVCAR-3)	GI50 (ACHN)	GI50 (PC-3)	GI50 (MCF7)	GI50 (OVCAR-8)	GI50 (Hs-578T)	GI50 (SW-620)	GI50 (CAKI-1)	GI50 (HL-60)	GI50 (NCI-H460)	GI50 (COLO 205)	GI50 (SF-539)	GI50 (LOX IMVI)	GI50 (NCI-H23)	GI50 (MOLT-4)	GI50 (MDA-MB-231)	GI50 (M14)	GI50 (SNB-75)
N=c1c2ccccc2nc2oc3ccccc3n12	> 100 µM (inactive)	28.4 µM (inactive)	> 10 µM (inactive)	30.5 µM (inactive)	85.1 µM (inactive)	45.1 µM (inactive)	37.5 µM (inactive)	20.6 µM (inactive)	93.5 µM (inactive)	44.4 µM (inactive)	> 100 µM (inactive)	> 10 µM (inactive)	> 100 µM (inactive)	37.2 µM (inactive)	53.8 µM (inactive)	35.2 µM (inactive)				
O=C1c2ccccc2C(=O)c2sc(Nc3ccc(Cl)c(Cl)c3)nc21	2.12 µM (inactive)	11.1 µM (inactive)	2.49 µM (inactive)	1.75 µM (inactive)			3.7 µM (inactive)	6.92 µM (inactive)	1.61 µM (inactive)	3.07 µM (inactive)	0.256 µM (active)	12.5 µM (inactive)	8 µM (inactive)	4.38 µM (inactive)	2.17 µM (inactive)	2.31 µM (inactive)	1.02 µM (active)	2.17 µM (inactive)	3.22 µM (inactive)	8.05 µM (inactive)
N=C(N)SCc1ccc(N=C=S)cc1	12.5 µM (inactive)	14.5 µM (inactive)		13.2 µM (inactive)	15.9 µM (inactive)		15.2 µM (inactive)	12.6 µM (inactive)	12.9 µM (inactive)	12.7 µM (inactive)	5.62 µM (inactive)	14.9 µM (inactive)	13.4 µM (inactive)	14.1 µM (inactive)	12.8 µM (inactive)	14.2 µM (inactive)	> 100 µM (inactive)	7.74 µM (inactive)		10.2 µM (inactive)
C=C1C(=O)O[C@H]2[C@H]([C@H](C)CCCC(C)=O)O[C@H]([C@@]3(C)CCC(=O)O3)C[C@@H]12	> 100 µM (inactive)	17.7 µM (inactive)	56.1 µM (inactive)	46.9 µM (inactive)	> 100 µM (inactive)		63.4 µM (inactive)	29.2 µM (inactive)	46.3 µM (inactive)	18.3 µM (inactive)	41.7 µM (inactive)	> 100 µM (inactive)	40.6 µM (inactive)	59.8 µM (inactive)	24.4 µM (inactive)	43.4 µM (inactive)	78.7 µM (inactive)	> 100 µM (inactive)	33.9 µM (inactive)	> 100 µM (inactive)
Cc1ccc(/N=C2\SC(=NN(C)C)S\C2=N/c2ccc(C)cc2)cc1	> 100 µM (inactive)	> 100 µM (inactive)		> 100 µM (inactive)	> 100 µM (inactive)		> 100 µM (inactive)	> 100 µM (inactive)	> 100 µM (inactive)	> 100 µM (inactive)	> 100 µM (inactive)	> 100 µM (inactive)	> 100 µM (inactive)	> 100 µM (inactive)	> 100 µM (inactive)	> 100 µM (inactive)	> 100 µM (inactive)	> 100 µM (inactive)		> 100 µM (inactive)
O=P(O)(O)C(N=C(Nc1ccccc1)Nc1ccccc1)P(=O)(O)O	> 100 µM (inactive)	> 100 µM (inactive)	> 100 µM (inactive)	> 100 µM (inactive)	> 100 µM (inactive)	> 100 µM (inactive)	> 100 µM (inactive)	> 100 µM (inactive)		> 100 µM (inactive)		> 100 µM (inactive)	> 100 µM (inactive)	> 100 µM (inactive)	> 100 µM (inactive)	> 100 µM (inactive)		> 100 µM (inactive)	> 100 µM (inactive)	
